# Source: patent US6603044B1, “Phthalamide derivatives, or salt thereof agrohorticultural insecticide, and method for using the same” (Nihon Nohyaku Co., Ltd., priority 1998, dated 2003)
# Tests used:
# Format in all cases: in vivo
# [1] = system: Common Cutworm (Spodoptera Litura); assay: Insecticidal effect on common cutworm (Test Example 2); conditions: 50 ppm; cabbage leaf immersed about 30 seconds; second-instar larvae; 25° C.; eight days after the inoculation
# Text: Insecticidal Effect on Common Cutworm (Spodoptera Litura)
# A piece of cabbage leaf (cultivar; Shikidori) was immersed for about 30 seconds in a liquid chemical prepared by diluting a preparation containing each compound listed in Table 1, 2 or 3 as an active ingredient to adjust the concentration to 50 ppm. After air-dryness, it was placed in a plastic Petri dish with a diameter of 9 cm and inoculated with second-instar larvae of common cutworm, after which the dish was closed and then allowed to stand in a room thermostatted at 25° C. Eight days after the inoculation, the dead and alive were counted. The mortality was calculated according to the following equation and the insecticidal effect was judged according to the criterion shown in Test Example 1. The test was carried out with triplicate groups of 10 insects. [formula]
# [2] = system: Diamond Back Moth (Plutella xylostella); assay: Insecticidal effect on diamond back moth (Test Example 1); conditions: 50 ppm; Chinese cabbage seedling with deposited eggs immersed about 30 seconds; 25° C.; six days after the immersion
# Text: Insecticidal Effect on Diamond Back Moth (Plutella xylostella)
# Adult diamondback moths were released and allowed to oviposit on a Chinese cabbage seedling. Two days after the release, the seedling having the eggs deposited thereon was immersed for about 30 seconds in a liquid chemical prepared by diluting a preparation containing each compound listed in Table 1, 2 or 3 as an active ingredient to adjust the concentration to 50 ppm. After air-dryness, it was allowed to stand in a room thermostatted at 25° C. Six days after the immersion, the hatched insects were counted. The mortality was calculated according to the following equation and the insecticidal effect was judged according to the criterion shown below. The test was carried out with triplicate groups of 10 insects.
# [3] = system: Smaller tea Tortrix (Adoxophyes sp.); assay: Insecticidal effect on smaller tea tortrix (Test Example 3); conditions: 50 ppm; tea leaf immersed 30 seconds; larvae; 25° C., humidity 70%; eight days after the inoculation
# Method: Insecticidal Effect on Smaller tea Tortrix (Adoxophyes sp.)
# A leaf of tea tree was immersed for 30 seconds in a liquid chemical containing each compound listed in Table 1, 2 or 3 as an active ingredient to adjust the concentration to 50 ppm. After air-dryness, the leaf was transferred to a plastic dish with a diameter of 9 cm and inoculated with larval smaller tea tortrix. Then, the leaf was allowed to stand in a room thermostatted at 25° C. at a humidity of 70%. Eight days after the inoculation, the dead and alive were counted, and the insecticidal effect was judged according to the same criterion as mentioned in Test Example 1. The test was carried out with triplicate groups of 10 insects.
SMILES,Test Example 2 insecticidal effect (mortality) [1],Test Example 1 insecticidal effect (mortality) [2],Test Example 3 insecticidal effect (mortality) [3]
CC(C[S+](C)[O-])NC(=O)c1c(Br)cccc1C(=O)Nc1ccc(OC(F)(F)F)cc1Cl (stereo not shown) [compound 338],A (100),A (100),–
CSCC(C)NC(=O)c1c(C(=O)Nc2ccc(C(F)(C(F)(F)F)C(F)(F)F)cc2C)ccc(F)c1Cl (stereo not shown) [compound 149],A (100),A (100),–
Cc1cc(C(F)(F)C(F)(F)F)ccc1NC(=O)c1cccc(I)c1C(=O)N1CCSC1 [3-1],A (100),A (100),–
CCN(CSC)C(=O)c1c(Cl)cccc1C(=O)Nc1ccc(C(F)(C(F)(F)F)C(F)(F)F)cc1C [2-8],A (100),A (100),–
CSCC(C)NC(=O)c1cccc(Cl)c1C(=O)Nc1ccc(C(F)(F)C(F)(F)F)cc1C (stereo not shown) [compound 115],A (100),A (100),–
CSCC(C)(C)NC(=O)c1c(Br)cccc1C(=O)Nc1ccc(OC(F)(F)F)cc1Cl [compound 227],A (100),A (100),–
CCN(CCSC)C(=O)c1c(F)cccc1C(=O)Nc1ccc(C(F)(C(F)(F)F)C(F)(F)F)cc1C [2-5],C (89-80),A (100),–
Cc1cc(C(F)(F)F)ccc1NC(=O)c1cccc(Br)c1C(=O)NC(C)(C)C[S+](C)[O-] (stereo not shown) [compound 311],A (100),A (100),–
CNC(=S)SCC(C)NC(=O)c1c(I)cccc1C(=O)Nc1ccc(C(F)(C(F)(F)F)C(F)(F)F)cc1C (stereo not shown) [compound 425],A (100),A (100),–
CSCC(C)NC(=O)c1c(C(=O)Nc2ccc(C(F)(F)C(F)(F)F)cc2C)ccc(F)c1Cl (stereo not shown) [compound 148],C (89-80),A (100),–
CSCC(C)NC(=O)c1c(C(=O)Nc2ccc(OC(F)(F)F)cc2C)ccc2c1OC(F)(F)O2 (stereo not shown) [compound 290],D (79-50),A (100),–
CSCC(C)(C)NC(=O)c1c(F)cccc1C(=O)Nc1ccc(OC(F)(F)F)cc1Cl [compound 385],C (89-80),A (100),–
C[S+]([O-])CC(C)(C)NC(=O)c1c(Cl)cccc1C(=O)Nc1ccc(OC(F)(F)F)cc1Cl (stereo not shown) [compound 370],A (100),A (100),–
Cc1cc(OC(F)(F)F)ccc1NC(=O)c1cccc(I)c1C(=O)NC(C)CSC(C)C (stereo not shown) [compound 5],A (100),A (100),–
Cc1cc(C(F)(F)C(F)(F)F)ccc1NC(=O)c1cccc(I)c1C(=O)NC(C)CCC[S+](C)[O-] (stereo not shown) [compound 133],A (100),A (100),–
CCN(CSC)C(=O)c1c(Cl)cccc1C(=O)Nc1ccc(OC(F)(F)C(F)(F)F)cc1C [2-17],A (100),A (100),–
CSCC(C)NC(=O)c1c(I)cccc1C(=O)Nc1ccc(OC(F)(F)F)cc1 (stereo not shown) [compound 8],–,A (100),C (89-80)
CCCN(CCSC)C(=O)c1c(F)cccc1C(=O)Nc1ccc(C(F)(C(F)(F)F)C(F)(F)F)cc1C [2-3],–,A (100),A (100)
CSCC(C)NC(=O)c1ccccc1C(=O)Nc1ccc(C(F)(C(F)(F)F)C(F)(F)F)cc1C (stereo not shown) [Compound No. 16],–,A (100),A (100)
Cc1cc(C(F)(C(F)(F)F)C(F)(F)F)ccc1NC(=O)c1ccc2ccccc2c1C(=O)NC(C)CS(C)(=O)=O (stereo not shown) [compound 335],–,A (100),D (79-50)
Cc1cc(C(F)(C(F)(F)F)C(F)(F)F)ccc1NC(=O)c1cccc(I)c1C(=O)NC(C)CSc1nccs1 (stereo not shown) [compound 352],–,A (100),A (100)

SMILES,Test Example 2 insecticidal effect (mortality) [1],Test Example 1 insecticidal effect (mortality) [2],Test Example 3 insecticidal effect (mortality) [3]
CSCC(NC(=O)c1c(I)cccc1C(=O)Nc1ccc(C(F)(C(F)(F)F)C(F)(F)F)cc1C)c1ccccc1 (stereo not shown) [compound 89],–,A (100),A (100)
CSCC(C)NC(=O)c1cc(Cl)ccc1C(=O)Nc1ccc(C(F)(F)C(F)(F)F)cc1C (stereo not shown) [compound 43],–,A (100),A (100)
CSCC(C)NC(=O)c1cc2ccccc2cc1C(=O)Nc1ccc(C(F)(C(F)(F)F)C(F)(F)F)cc1C (stereo not shown) [compound 332],–,A (100),A (100)
Cc1cc(OC(F)(F)F)ccc1NC(=O)c1ccc2c(c1C(=O)NC(C)(C)CS(C)(=O)=O)OC(F)(F)O2 [compound 293],–,A (100),A (100)
CSCC(C)(C)NC(=O)c1c(C(=O)Nc2ccc(Cl)cc2Cl)cccc1[N+](=O)[O-] [compound 326],–,A (100),A (100)
CSCC(C)NC(=O)c1c(I)cccc1C(=O)Nc1ccc([Si](C)(C)C)cc1C (stereo not shown) [compound 368],–,A (100),A (100)
CSCNC(=O)c1ccccc1C(=O)Nc1ccc(C(F)(C(F)(F)F)C(F)(F)F)cc1C [compound 298],–,A (100),A (100)
CSCC(C)(C)NC(=O)c1c(C(=O)Nc2ccc(OC(F)(F)F)cc2C)ccc2c1OCO2 [compound 252],–,A (100),A (100)
CSC1CCCCC1NC(=O)c1c(I)cccc1C(=O)Nc1ccc(C(F)(C(F)(F)F)C(F)(F)F)cc1C (stereo not shown) [compound 273],–,A (100),C (89-80)
CSCCC(C)NC(=O)c1c(I)cccc1C(=O)Nc1ccc(OC(F)(F)F)cc1C (stereo not shown) [compound 164],–,A (100),A (100)
Cc1cc(C(F)(F)C(F)(F)F)ccc1NC(=O)c1cccc(I)c1C(=O)NCCSC(C)C [compound 59],–,A (100),A (100)
CCN(CCS(C)(=O)=O)C(=O)c1c(F)cccc1C(=O)Nc1ccc(C(F)(C(F)(F)F)C(F)(F)F)cc1C [2-12],–,A (100),A (100)
CSCC(C)NC(=O)c1c(C(=O)Nc2ccc(OC(F)(F)F)cc2C)ccc(F)c1F (stereo not shown) [compound 44],–,A (100),A (100)
Cc1cc(C(F)(C(F)(F)F)C(F)(F)F)ccc1NC(=O)c1cccc(I)c1C(=O)NC(C)CSC(=S)N(C)C (stereo not shown) [compound 302],–,A (100),A (100)
CSCCSCC(C)NC(=O)c1c(I)cccc1C(=O)Nc1ccc(OC(F)(F)F)cc1C (stereo not shown) [compound 190],–,A (100),A (100)
Cc1cc(C(F)(F)C(F)(F)F)ccc1NC(=O)c1cccc(I)c1C(=O)NC(C)CSC1CCCCC1 (stereo not shown) [compound 85],–,A (100),A (100)
CC[S+]([O-])CCCC(C)NC(=O)c1c(I)cccc1C(=O)Nc1ccc(C(F)(C(F)(F)F)C(F)(F)F)cc1C (stereo not shown) [compound 202],–,A (100),A (100)
Cc1cc(C(F)(C(F)(F)F)C(F)(F)F)ccc1NC(=O)c1ccc2ccccc2c1C(=O)NC(C)C[S+](C)[O-] (stereo not shown) [compound 334],–,A (100),A (100)
CCSCC(C)NC(=O)c1c(I)cccc1C(=O)Nc1ccc(Cl)cc1C (stereo not shown) [compound 24],–,A (100),A (100)
CSCC(C)(C)NC(=O)c1c(I)cccc1C(=O)Nc1ccc(C(O)c2ccc(Cl)cc2)cc1C (stereo not shown) [compound 472],–,A (100),A (100)
